Patent publication US20090233948A1, “Inhibitors of nucleoside phosphorylases and nucleosidases” (priority 2005, published 2009)
Where two headings read alike, the source gives them in different places.

Target: T1, human PNP (Homo sapiens, UniProt P00491)
T1 sequence (P00491 1-289): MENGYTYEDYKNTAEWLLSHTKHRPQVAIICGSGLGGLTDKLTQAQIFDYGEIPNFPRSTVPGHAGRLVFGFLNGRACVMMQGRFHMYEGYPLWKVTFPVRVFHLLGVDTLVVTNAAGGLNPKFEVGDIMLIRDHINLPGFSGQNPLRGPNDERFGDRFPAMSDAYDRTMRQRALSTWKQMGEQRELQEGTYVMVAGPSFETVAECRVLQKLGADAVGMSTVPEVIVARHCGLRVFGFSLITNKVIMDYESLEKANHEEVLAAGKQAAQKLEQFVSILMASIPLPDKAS
Experiment: Inhibition of human PNP: phosphorolysis of inosine, xanthine oxidase coupled spectrophotometric assay (slow-onset tight-binding analysis)
Type: biochemical
Conditions: huPNP 1.4 nM, 1 mM inosine, 50 mM KHPO4 pH 7.4, 25° C.
Method: Initial (Ki) and equilibrium (Ki*) dissociation constants of DAD-Et-Immucillin-H were determined for human PNP.
Inhibitor dissociation constants for the phosphorolysis of inosine were based on initial and equilibrium reaction rate measurements with varied inhibitor concentrations (Miles, R. W., Tyler, P. C., Furneaux, R. H., Bagdassarian, C. K. and Schramm, V. L. (1998) One-third-the-sites transition state inhibitors for purine nucleoside phosphorylase, Biochemistry 37, 8615-8621; Morrison, J. F. and Walsh, C. T. (1988) The behaviour and significance of slow-binding enzyme inhibitors, Adv. Enzymol. Relat. Areas Mol. Biol. 61, 201-301). […] Hypoxanthine formed by phosphorolysis of inosine was oxidized to uric acid and monitored spectrophotometrically at 293 nm (extinction coefficient for uric acid ε293=12.9 mM^−1cm^−1). Enzyme concentration was adjusted to give absorbance changes not exceeding 1.0 during the time required to characterize initial and final slow-onset inhibition equilibria. […] Ki was determined by fitting the initial rates at different inhibitor concentration to the equation for competitive inhibition: νi=(kcat×S)/(Km(1+I/Ki)+S), where μi is initial reaction rate, kcat is the catalytic turnover number, Km is the Michaelis constant, Ki is the dissociation constant of enzyme-inhibitor complex (EI), I is inhibitor concentration and S is substrate concentration. […]

Ki (after slow onset equilibrium, read-out: Equilibrium dissociation constant (Ki*)): 0.46 ± 0.05 nM
Ki (initial inhibitor binding step, read-out: Initial dissociation constant (Ki)): 1.6 ± 0.3 nM
SMILES: O=c1[nH]cnc2c(CCN3C[C@@H](CO)[C@H](O)C3)c[nH]c12 [Compound 1, (3S,4S)-1-[2-(9-Deaza-hypoxanthin-9-yl)ethyl]-3-hydroxy-4-hydroxymethylpyrrolidine]
